From article PMC8658804, “Small Molecule CD38 Inhibitors: Synthesis of 8-Amino-N1-Inosine 5′-Monophosphate, Analogues and Early Structure-Activity Relationship” (Molecules (Basel, Switzerland), 2021)
“Also recorded” adds a separate entry of the source. Where two headings read alike, the source gives them in different places.

Assays:
[1] = target: T1, CD38 (Homo sapiens, UniProt P28907); experiment: Inhibition of CD38-catalyzed cADPR hydrolysis (fluorimetric cycling assay); format: biochemical; settings: for inhibitory activity (IC50) of CD38-mediated cADPR hydrolysis / IC50: 1 mM cADPR, 2 mg/mL CD38, 10 min, pH 4.5, IC50 values >1000 μM are approximate; for IC50: read-out: inhibitory activity (IC50) of CD38-mediated cADPR hydrolysis
T1 construct: incubating 1 mM cADPR with 2 mg/mL of CD38 for 10 min
T1 sequence (P28907 1-300): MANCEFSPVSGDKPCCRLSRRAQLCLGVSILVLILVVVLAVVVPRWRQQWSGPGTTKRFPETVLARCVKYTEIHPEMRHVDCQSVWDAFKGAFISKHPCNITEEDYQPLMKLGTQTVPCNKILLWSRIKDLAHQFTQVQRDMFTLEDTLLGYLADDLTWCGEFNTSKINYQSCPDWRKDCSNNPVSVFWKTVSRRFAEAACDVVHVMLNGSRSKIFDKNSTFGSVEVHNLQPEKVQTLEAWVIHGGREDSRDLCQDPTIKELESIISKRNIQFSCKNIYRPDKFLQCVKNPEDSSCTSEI
Protocol: The inhibition of cADPR hydrolysis by various concentrations of inhibitor (0–1 mM) was determined by incubating 1 mM cADPR with 2 mg/mL of CD38 for 10 min at 20–24uC in 25 mM sodium acetate, pH 4.5. The reaction was stopped by the addition of 150 mM HCl. The precipitated protein was filtered, and the pH was neutralized with Tris base. After diluting the mixture 20-fold, the concentration of the unhydrolyzed cADPR present in the diluted reaction mixture was assayed by the fluorimetric cycling assay as previously described.[46]

[2] = target: T1, CD38; settings: N1-IMP fragments and 8-NH2-N1-cIDPR from earlier work; read-out: IC50, inhibition of CD38-catalyzed cADPR hydrolysis; cited from earlier work
[3] = test system: T-cells; parameters: method as in PMID 12932045, PMID 16967053; settings: compared with cADPR; cited from earlier work
[4] = Solubility in the assay medium; format: physicochemical; settings: CD38 assay medium
[5] = target: T2, shCD38 (CD38 catalytic domain) (Homo sapiens, UniProt P28907); experiment: Ligand hydrolysis by high concentrations of shCD38, monitored by RP-HPLC; format: biochemical; settings: 1 mM ligand, 4 mg/mL shCD38
T2 construct: high concentrations of CD38 catalytic domain (shCD38) present in crystallography media
T2 sequence (P28907 43-300 limits assumed): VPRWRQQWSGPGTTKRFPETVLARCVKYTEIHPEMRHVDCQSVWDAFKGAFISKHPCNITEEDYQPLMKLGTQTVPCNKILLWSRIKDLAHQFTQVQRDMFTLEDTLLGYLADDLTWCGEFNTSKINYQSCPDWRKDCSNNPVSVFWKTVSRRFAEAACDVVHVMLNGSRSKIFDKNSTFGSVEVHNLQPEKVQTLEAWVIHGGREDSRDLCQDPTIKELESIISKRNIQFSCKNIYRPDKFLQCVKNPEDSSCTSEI
Protocol: Indeed, 8-NH2-N9-butyl-cIDPR (6, Figure 2) was captured as the hydrolyzed product in the crystal structure with shCD38. […] Incubation of 11, 8-NH2-N1-IMP (1 mM final concentration) with 4 mg/mL shCD38 was monitored using RP-HPLC. The peak corresponding to 8-NH2-N1-IMP (RT = 10.5 min) reduced in intensity over time, alongside the appearance of a new peak (RT = 2.0 min) that was characteristic of an 8-amino substituted hypoxanthine analog (See Supplementary Information, Figure S1).
HPLC studies were carried out as previously described.[36] Briefly, the solution containing shCD38 was adjusted to the desired concentration using Tris-HCl buffer (20 mM, pH 8) and 50 μL was added to the inhibitor (0.05 μmole) in an Eppendorf tube at room temperature. At a given time point, a sample of 5 μL was removed and diluted with 95 μL MilliQ water. 10 μL Of this sample was injected directly into the analytical HPLC system (see General Experimental), eluting at 1 mL/min with an isocratic ion-pair buffer: 0.17% (m/v) cetrimide and 45% (v/v) phosphate buffer (pH 6.4) in MeOH.

SMILES | inhibitory activity on CD38-mediated cADPR hydrolysis, in words [1] | IC50 [1] | other results
NS(=O)(=O)OC[C@H]1O[C@@H](n2cnc3[nH]c(Cl)nc3c2=O)[C@H](O)[C@@H]1O [Compound 28, N1-(5′-O-sulfonamide-β-D-ribofuranosyl)-8-chlorohypoxanthine] | neither of the two analogues (28, 29) showed any activity | – | inhibitory activity (IC50) of CD38-mediated cADPR hydrolysis [1]: No activity
O=c1c2ncn([C@@H]3O[C@H](CO)[C@@H](O)[C@H]3O)c2ncn1[C@@H]1O[C@H](CO)[C@@H](O)[C@H]1O [Compound 15, N1-(β-D-Ribofuranosyl)-inosine] | low mM inhibitory activity | ~7500 µM | –
O=c1c2nc(Br)n([C@@H]3O[C@H](CO)[C@@H](O)[C@H]3O)c2ncn1[C@@H]1O[C@H](CO)[C@@H](O)[C@H]1O [Compound 14, N1-(β-D-Ribofuranosyl)-8-bromoinosine] | no activity | – | inhibitory activity (IC50) of CD38-mediated cADPR hydrolysis [1]: No activity
O=c1c2nc(Br)[nH]c2ncn1[C@@H]1O[C@H](COP(=O)(O)O)[C@@H](O)[C@H]1O [Compound 10, N1-(5′-O-Phosphoryl-β-D-ribofuranosyl)-8-bromohypoxanthine] | – | – | IC50 [2]: 201 ± 41 µM
Nc1nc2c(=O)n3cnc2n1[C@@H]1O[C@H](COP(=O)(O)OP(=O)(O)OC[C@H]2O[C@@H]3[C@H](O)[C@@H]2O)[C@@H](O)[C@H]1O [Compound 4, 8-NH2-N1-cIDPR, reference compound] | – | – | IC50 [2]: 56 µM
Nc1nc2c(=O)n([C@@H]3O[C@H](CO)[C@@H](O)[C@H]3O)cnc2n1[C@@H]1O[C@H](CO)[C@@H](O)[C@H]1O [Compound 17, N1-(β-D-ribofuranosyl)-8-aminoinosine] | low mM inhibitory activity | ~7600 µM | –
O=c1c2ncn3c2ncn1[C@@H]1O[C@H](COP(=O)(O)OP(=O)(O)OC[C@H]2O[C@@H]3[C@H](O)[C@@H]2O)[C@@H](O)[C@H]1O [Compound 2, cyclic inosine 5′-diphosphoribose] | – | – | Ca2+ release [3]: almost indistinguishably to that induced by cADPR
NS(=O)(=O)OC[C@H]1O[C@@H](n2cnc3[nH]cnc3c2=O)[C@H](O)[C@@H]1O [Compound 29, N1-(5′-O-sulfonamide-β-D-ribofuranosyl)-hypoxanthine] | neither of the two analogues (28, 29) showed any activity | – | inhibitory activity (IC50) of CD38-mediated cADPR hydrolysis [1]: No activity
O=c1c2nc(Br)n(CCCCO)c2ncn1[C@@H]1O[C@H](CO)[C@@H](O)[C@H]1O [Compound 18, N1-(β-D-Ribofuranosyl)-N9-(4-hydroxybutyl)-8-bromohypoxanthine] | – | – | solubility in the assay medium [4]: insoluble in the assay medium
Nc1nc2c(=O)n([C@@H]3O[C@H](COP(=O)(O)O)[C@@H](O)[C@H]3O)cnc2[nH]1 [Compound 11, N1-(5′-O-Phosphoryl-β-D-ribofuranosyl)-8-aminohypoxanthine] | – | – | hydrolysis of ligand by shCD38 (RP-HPLC) [5]: hydrolyzed more rapidly than cIDPR (2), but more slowly than 8-NH2-N9-butyl-cIDPR (6); also recorded: hydrolyzed at the N1-ribosyl bond; hydrolysis of ligand by shCD38 (RP-HPLC) ([5]; listed as 8-NH2-N1-IMP): cleaved at high CD38 concentrations; IC50 [2]: 7.6 ± 0.2 µM
O=c1c2nc[nH]c2ncn1[C@@H]1O[C@H](COP(=O)(O)O)[C@@H](O)[C@H]1O [Compound 9, N1-Inosine 5′-monophosphate] | – | – | IC50 [2]: 14 ± 5 µM
[N-]=[N+]=Nc1nc2c(=O)n([C@@H]3O[C@H](CO)[C@@H](O)[C@H]3O)cnc2n1[C@@H]1O[C@H](CO)[C@@H](O)[C@H]1O [Compound 16, N1-(β-D-ribofuranosyl)-8-azidoinosine] | no activity | – | inhibitory activity (IC50) of CD38-mediated cADPR hydrolysis [1]: No activity

Second part, led by results:

inhibitory activity on CD38-mediated cADPR hydrolysis, in words [1] | IC50 [1] | SMILES | other results
– | 332 µM | Nc1nc2c(=O)n([C@@H]3O[C@H](COP(=O)(O)O)[C@@H](O)[C@H]3O)cnc2n1CCCCO [Compound 25, N1-(5′-O-Phosphoryl-β-D-ribofuranosyl)-N9-(4-hydroxybutyl)-8-aminohypoxanthine] | –
– | ~3300 µM | Nc1nc2c(=O)n([C@@H]3O[C@H](CO)[C@@H](O)[C@H]3O)cnc2n1CCCCO [Compound 21, N1-(β-D-Ribofuranosyl)-N9-(4-hydroxybutyl)-8-aminohypoxanthine] | –
– | ~2300 µM | O=c1c2ncn(CCCCO)c2ncn1[C@@H]1O[C@H](CO)[C@@H](O)[C@H]1O [Compound 19, N1-(β-D-Ribofuranosyl)-N9-(4-hydroxybutyl)-hypoxanthine] | –
– | 201 µM | [N-]=[N+]=Nc1nc2c(=O)n([C@@H]3O[C@H](COP(=O)(O)O)[C@@H](O)[C@H]3O)cnc2n1CCCCO [Compound 24, N1-(5′-O-Phosphoryl-β-D-ribofuranosyl)-N9-(4-hydroxybutyl)-8-azidohypoxanthine] | –
– | 757 µM | O=c1c2ncn(CCCCO)c2ncn1[C@@H]1O[C@H](COP(=O)(O)O)[C@@H](O)[C@H]1O [Compound 23, N1-(5′-O-Phosphoryl-β-D-ribofuranosyl)-N9-(4-hydroxybutyl)hypoxanthine] | –
– | 230 ± 9 µM | O=c1c2nc(Br)[nH]c2ncn1[C@H]1O[C@@H](COP(=O)(O)O)[C@H](O)[C@@H]1O [Compound 26, N1-(5′-O-Phosphoryl-β-L-ribofuranosyl)-8-bromohypoxanthine] | –
– | 460 µM | O=c1c2nc[nH]c2ncn1[C@H]1O[C@@H](COP(=O)(O)O)[C@H](O)[C@@H]1O [Compound 27, N1-(5′-O-Phosphoryl-β-L-ribofuranosyl)-hypoxanthine] | fold reduction in activity compared to parent / D-ribose N1-IMP counterpart ([1]; ratio of IC50 values): 30 fold
– | ~9500 µM | [N-]=[N+]=Nc1nc2c(=O)n([C@@H]3O[C@H](CO)[C@@H](O)[C@H]3O)cnc2n1CCCCO [Compound 20, N1-(β-D-Ribofuranosyl)-N9-(4-hydroxybutyl)-8-azidohypoxanthine] | –
